In ChEMBL document CHEMBL1150745, “Plant anticancer agents, XLVI. Cytotoxic casbane-type constituents of Agrostistachys hookeri” (1988):
Values after ≈ are worked out from the molar mass of the structure shown.

System: P388
Assay: Cytotoxicity against mouse P388 cells
Format: functional
Conditions: read-out: ED50 (the source's name)

| SMILES | EC50 [µg/mL] |
| --- | --- |
| C/C1=C/C(=O)C/C(C)=C/[C@H](O)C(=O)/C(C)=C/[C@H]2[C@@H](CC1)C2(C)C | 2.8 (≈ 8.85 µM) |
| C/C1=C/[C@H](O)C/C(C)=C/[C@H](O)C(=O)/C(C)=C/[C@H]2[C@@H](CC1)[C@]2(C)CO | 0.8 (≈ 2.39 µM) |
| C/C1=C\[C@H](O)C(=O)/C(C)=C/[C@@H]2[C@@H](CCC(C)(O)/C=C/C1)C2(C)C (some centres undefined) [AGROSKERIN] | 1.4 (≈ 4.4 µM) |
| C/C1=C/[C@H](O)C/C(C)=C/[C@H](O)C(=O)/C(C)=C/[C@H]2[C@@H](CC1)C2(C)C [AGROSTISTACHIN] | 1.4 (≈ 4.4 µM) |
